What was measured:
Rat [1] = assay: concentration in plasma after dosing; settings: 6 h; dosed: 2-Hydroxy-4-methoxybenzophenone; 500 mg/kg; oral; Male; F344
Mouse [2] = assay: concentration in plasma after dosing; settings: dosed: 2-Hydroxy-4-methoxybenzophenone, 100 mg/kg, oral, Male, B6C3F1
Rat [3] = assay: concentration in plasma after dosing; settings: 3 h; dosed: Primidone; 130 mg/kg; oral; Male; Harlan Sprague Dawley
Rat [4] = assay: concentration in plasma after dosing; settings: 12 h; dosed: Primidone; 30 mg/kg; oral; Female; F344
Rat [5] = assay: concentration in plasma after dosing; settings: 0.25 h; dosed: Primidone; 30 mg/kg; oral; Male; F344
Rat [6] = assay: concentration in plasma after dosing; settings: 0.25 h; dosed: Primidone; 80 mg/kg; oral; Female; F344
Rat [7] = assay: concentration in plasma after dosing; settings: 3 h; dosed: Primidone; 130 mg/kg; oral; Female; F344
Rat [8] = assay: concentration in plasma after dosing; settings: 12 h; dosed: Primidone; 130 mg/kg; oral; Male; Harlan Sprague Dawley
Mouse [9] = assay: concentration in plasma after dosing; settings: 5 min; dosed: 2,4-Dichlorophenoxyacetic acid; 2.0 mg/kg; oral; Male; B6C3F1
Mouse [10] = assay: concentration in plasma after dosing; settings: 2.5 min; dosed: 2,4-Dichlorophenoxyacetic acid; 1.0 mg/kg; oral; Male; B6C3F1
Mouse [11] = assay: concentration in plasma after dosing; settings: dosed: 2,4-Dichlorophenoxyacetic acid, 1.0 mg/kg, iv, Male, B6C3F1
Rat [12] = assay: concentration in brain after dosing; settings: 3 h; dosed: alpha-Thujone; 25 mg/kg; oral; Female; Harlan Sprague Dawley
Rat [13] = assay: concentration in plasma after dosing; settings: 1.5 h; dosed: alpha-Thujone; 25 mg/kg; oral; Male; Harlan Sprague Dawley
Rat [14] = assay: concentration in plasma after dosing; settings: 12 h; dosed: alpha-Thujone; 50 mg/kg; oral; Female; Harlan Sprague Dawley
Rat [15] = assay: concentration in brain after dosing; settings: 3 h; dosed: alpha-Thujone; 50 mg/kg; oral; Female; Harlan Sprague Dawley
Rat [16] = assay: concentration in brain after dosing; settings: 5 min; dosed: alpha-Thujone; 25 mg/kg; oral; Male; Harlan Sprague Dawley
Rat [17] = assay: concentration in plasma after dosing; settings: 10 min; dosed: alpha-Thujone; 50 mg/kg; oral; Female; Harlan Sprague Dawley
Rat [18] = assay: concentration in plasma after dosing; settings: 10 min; dosed: alpha-Thujone; 50 mg/kg; oral; Female; Harlan Sprague Dawley; remark: listed apart in the source
Rat [19] = assay: concentration in plasma after dosing; settings: 5 min; dosed: alpha-Thujone; 50 mg/kg; oral; Female; Harlan Sprague Dawley
Rat [20] = assay: concentration in kidney after dosing; settings: 24 h; dosed: Perfluorohexane-1-sulphonic acid – potassium salt; 16 mg/kg; oral; Female; F344
Rat [21] = assay: concentration in liver after dosing; settings: 12 h; dosed: Perfluorohexane-1-sulphonic acid – potassium salt; 16 mg/kg; oral; Female; F344
Rat [22] = assay: concentration in kidney after dosing; settings: 6 h; dosed: Perfluorohexane-1-sulphonic acid – potassium salt; 16 mg/kg; oral; Female; F344
Rat [23] = assay: concentration in brain after dosing; settings: 6 h; dosed: Perfluorohexane-1-sulphonic acid – potassium salt; 16 mg/kg; oral; Female; Harlan Sprague Dawley
Rat [24] = assay: concentration in brain after dosing; settings: 6 h; dosed: Perfluorohexane-1-sulphonic acid – potassium salt; 16 mg/kg; oral; Female; F344
Rat [25] = assay: concentration in brain after dosing; settings: 12 h; dosed: Perfluorohexane-1-sulphonic acid – potassium salt; 16 mg/kg; oral; Female; F344
Rat [26] = assay: concentration in brain after dosing; settings: 6 h; dosed: Perfluorohexane-1-sulphonic acid – potassium salt; 16 mg/kg; oral; Female; Harlan Sprague Dawley; remark: listed apart in the source
Rat [27] = assay: concentration in liver after dosing; settings: 528 h; dosed: Perfluorohexane-1-sulphonic acid – potassium salt; 16 mg/kg; oral; Female; F344
Rat [28] = assay: concentration in liver after dosing; settings: 3 h; dosed: Perfluorohexane-1-sulphonic acid – potassium salt; 16 mg/kg; oral; Female; Harlan Sprague Dawley
Rat [29] = assay: concentration in kidney after dosing; settings: 48 h; dosed: Perfluorohexane-1-sulphonic acid – potassium salt; 16 mg/kg; oral; Female; Harlan Sprague Dawley
Rat [30] = assay: concentration in liver after dosing; settings: 12 h; dosed: Perfluorohexane-1-sulphonic acid – potassium salt; 16 mg/kg; oral; Female; Harlan Sprague Dawley
Rat [31] = assay: concentration in liver after dosing; settings: 1200 h; dosed: Perfluorohexane-1-sulphonic acid – potassium salt; 16 mg/kg; oral; Male; Harlan Sprague Dawley
Rat [32] = assay: concentration in plasma after dosing; settings: dosed: Pyridine, 5 mg/kg, oral, Male, F344
Rat [33] = assay: concentration in plasma after dosing; settings: 2 min; dosed: Pyridine; 10 mg/kg; iv; Male; F344
Rat [34] = assay: concentration in plasma after dosing; settings: dosed: Methyleugenol, 37 mg/kg, oral, Male, F344/N
Rat [35] = assay: concentration in plasma after dosing; settings: dosed: Methyleugenol, 37 mg/kg, oral, Female, F344/N

Work on `O=C(c1ccccc1)c1ccc(O)cc1O` [2,4-Dihydroxybenzophenone] yielded a concentration in plasma (Rat [1]) of 285 ng/mL, a concentration in plasma (Mouse [2]; 2.5 min) of 185 ng/mL and a concentration in plasma (Mouse [2]; 10 min) of 301 ng/mL. It also gave a concentration in plasma (Mouse [2]; 0.25 h) of 433 ng/mL, a concentration in plasma (Mouse [2]; 2 h) of 177 ng/mL and a concentration in plasma (Mouse [2]; 3 h) of 119 ng/mL.
For `CCC1(c2ccccc2)C(=O)NCNC1=O` [Primidone], the concentration in plasma (Rat [3]) was 108000 ng/mL, the concentration in plasma (Rat [4]) was 5500 ng/mL and the concentration in plasma (Rat [5]) was 8900 ng/mL. For the same molecule, the concentration in plasma (Rat [6]) was 25300 ng/mL, the concentration in plasma (Rat [7]) was 50400 ng/mL and the concentration in plasma (Rat [8]) was 17800 ng/mL.
Molecule `O=C(O)COc1ccc(Cl)cc1Cl` [2,4-Dichlorophenoxyacetic acid] has a concentration in plasma (Mouse [9]) of 4560 ng/mL, a concentration in plasma (Mouse [10]) of 1730 ng/mL and a concentration in plasma (Mouse [11]; 5 min) of 6550 ng/mL. For the same molecule, the concentration in plasma (Mouse [11]; 0.25 h) was 8220 ng/mL, the concentration in plasma (Mouse [11]; 0.5 h) was 6040 ng/mL and the concentration in plasma (Mouse [11]; 1 h) was 3120 ng/mL. For the same molecule, the concentration in plasma (Mouse [11]; 2.5 h) was 266 ng/mL and the concentration in plasma (Mouse [11]; 3 h) was 1250 ng/mL.
With `CC(C)[C@]12CC(=O)[C@H](C)[C@H]1C2` [alpha-Thujone] the concentration in brain (Rat [12]) was 556 ng/g, the concentration in plasma (Rat [13]) was 233 ng/mL and the concentration in plasma (Rat [14]) was 23.1 ng/mL. The concentration in brain (Rat [15]) was 615 ng/g, the concentration in brain (Rat [16]) was 360 ng/g and the concentration in plasma (Rat [17]) was 1160 ng/mL. It also gave a concentration in plasma (Rat [18]) of 835 ng/mL and a concentration in plasma (Rat [19]) of 2120 ng/mL.
`O=S(=O)([O-])C(F)(F)C(F)(F)C(F)(F)C(F)(F)C(F)(F)C(F)(F)F.[K+]` [Perfluorohexane-1-sulphonic acid – potassium salt] was tested, and the concentration in kidney (Rat [20]) was 43700 ng/g, the concentration in liver (Rat [21]) was 75600 ng/g and the concentration in kidney (Rat [22]) was 36400 ng/g. The concentration in brain (Rat [23]) was 1090 ng/g, the concentration in brain (Rat [24]) was 1620 ng/g and the concentration in brain (Rat [25]) was 1520 ng/g. It also gave a concentration in brain (Rat [26]) of 1100 ng/g, a concentration in liver (Rat [27]) of 29800 ng/g and a concentration in liver (Rat [28]) of 57400 ng/g. The concentration in kidney (Rat [29]) was 11300 ng/g, the concentration in liver (Rat [30]) was 29700 ng/g and the concentration in liver (Rat [31]) was 15500 ng/g.
For `c1ccncc1` [Pyridine], the concentration in plasma (Rat [32]; 5 min) was 794 ng/mL, the concentration in plasma (Rat [32]; 4 h) was 2550 ng/mL and the concentration in plasma (Rat [33]) was 1310 ng/mL.
Molecule `C=CCc1ccc(OC)c(OC)c1` [Methyleugenol] has a concentration in plasma (Rat [34]; 20 min) of 53.8 ng/mL, a concentration in plasma (Rat [34]; 5 h) of 7.02 ng/mL and a concentration in plasma (Rat [35]; 2 min) of 13.3 ng/mL. It also gave a concentration in plasma (Rat [35]; 2 h) of 25.2 ng/mL.

— EPA's CvTdb concentration-time database
